According to US20120244071A1, “FTY720 HALOGENATED DERIVATIVES” (Novartis AG, priority 2009, published 2012):
Counter-ions that a name gives are not always drawn.

Experiments:
[1] = system: peripheral blood lymphocytes; assay: Blood Lymphocyte Depletion assay in Lewis rats; format: in vivo; settings: intravenous
Method: Percent of Lymphocyte Depletion in Lewis Rats
The lymphocyte homing property may be measured in following Blood Lymphocyte Depletion assay:
A S1P receptor agonist or the vehicle is administered intravenously to rats. […] In this assay, the S1P receptor agonist depletes peripheral blood lymphocytes, e.g. by 50%, when administered at a dose of e.g. <20 mg/kg. Preferred S1P receptor agonists are further compounds which in addition to their S1P binding properties internalize/desensitize S1P receptors, thereby antagonizing inflammatory processes driven by lysophospholipids, including i.e. sphingosine 1-phosphate (S1P), sphingophosphorylcholine (SPC), lysophosphatidic acid (LPA), and others, on vasculature cells, e.g. endothelial cells. The internalization/desensitization capacity of compounds will be determined using CHO cells transfected with a human myc-tagged S1P receptor.

S1P1 [2] = target: T1, S1P1 (Homo sapiens, UniProt P21453); settings: background statement; cited from earlier work
Target sequence in this assay (P21453 whole entry, species assumed): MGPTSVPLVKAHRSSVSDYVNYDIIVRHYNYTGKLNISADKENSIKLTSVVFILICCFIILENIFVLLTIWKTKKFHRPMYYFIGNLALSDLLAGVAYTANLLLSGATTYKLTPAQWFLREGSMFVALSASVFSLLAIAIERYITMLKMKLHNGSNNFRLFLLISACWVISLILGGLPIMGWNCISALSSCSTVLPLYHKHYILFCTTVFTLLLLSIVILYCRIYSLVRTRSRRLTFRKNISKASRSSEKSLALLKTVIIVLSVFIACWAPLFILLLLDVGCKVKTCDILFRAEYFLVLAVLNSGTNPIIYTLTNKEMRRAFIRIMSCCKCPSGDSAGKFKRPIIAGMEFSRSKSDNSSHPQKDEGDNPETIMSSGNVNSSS

S1P4 [3] = target: T2, S1P4 (Homo sapiens, UniProt O95977); settings: background statement; cited from earlier work
T2 sequence (O95977 1-384): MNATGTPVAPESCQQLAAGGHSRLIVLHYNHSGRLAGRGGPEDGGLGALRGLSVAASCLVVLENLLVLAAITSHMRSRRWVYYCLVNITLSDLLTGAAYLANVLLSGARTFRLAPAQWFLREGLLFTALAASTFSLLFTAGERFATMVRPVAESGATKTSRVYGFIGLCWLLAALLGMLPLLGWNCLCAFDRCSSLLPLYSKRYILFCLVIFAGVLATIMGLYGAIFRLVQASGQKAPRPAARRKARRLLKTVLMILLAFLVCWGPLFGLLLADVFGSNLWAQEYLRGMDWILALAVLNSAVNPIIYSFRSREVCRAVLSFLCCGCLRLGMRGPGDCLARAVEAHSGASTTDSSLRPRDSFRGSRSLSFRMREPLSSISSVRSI

S1P5 [4] = target: T3, S1P5 (Homo sapiens, UniProt Q9H228); settings: background statement; cited from earlier work
Target sequence in this assay (Q9H228 whole entry, species assumed): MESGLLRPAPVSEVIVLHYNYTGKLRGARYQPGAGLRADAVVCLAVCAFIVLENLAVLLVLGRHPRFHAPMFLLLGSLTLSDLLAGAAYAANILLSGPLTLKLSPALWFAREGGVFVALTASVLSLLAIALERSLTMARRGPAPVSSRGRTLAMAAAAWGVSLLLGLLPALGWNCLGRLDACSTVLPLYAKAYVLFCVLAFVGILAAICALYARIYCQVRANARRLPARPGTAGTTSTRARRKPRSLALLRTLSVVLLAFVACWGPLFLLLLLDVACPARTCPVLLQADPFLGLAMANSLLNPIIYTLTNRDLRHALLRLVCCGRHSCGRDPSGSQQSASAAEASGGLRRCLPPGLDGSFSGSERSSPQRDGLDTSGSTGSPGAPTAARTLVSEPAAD

S1P3 [5] = target: T4, S1P3 (Homo sapiens, UniProt Q99500); settings: background statement, about 10-fold lower affinity; cited from earlier work
Target sequence in this assay (Q99500 whole entry, species assumed): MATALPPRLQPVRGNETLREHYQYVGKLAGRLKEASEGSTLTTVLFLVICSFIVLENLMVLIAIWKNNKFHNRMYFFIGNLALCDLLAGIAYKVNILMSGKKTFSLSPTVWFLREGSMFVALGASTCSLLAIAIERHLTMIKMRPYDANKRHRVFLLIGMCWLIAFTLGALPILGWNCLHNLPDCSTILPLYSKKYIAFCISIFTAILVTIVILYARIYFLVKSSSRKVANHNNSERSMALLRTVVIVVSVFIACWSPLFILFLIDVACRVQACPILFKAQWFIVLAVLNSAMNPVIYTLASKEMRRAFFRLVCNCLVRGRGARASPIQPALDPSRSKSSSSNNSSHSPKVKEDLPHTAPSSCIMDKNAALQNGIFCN

S1P2 = S1P2 (Homo sapiens, UniProt O95136); settings: background statement; cited from earlier work
Chain of S1P2 (O95136 whole entry, species assumed): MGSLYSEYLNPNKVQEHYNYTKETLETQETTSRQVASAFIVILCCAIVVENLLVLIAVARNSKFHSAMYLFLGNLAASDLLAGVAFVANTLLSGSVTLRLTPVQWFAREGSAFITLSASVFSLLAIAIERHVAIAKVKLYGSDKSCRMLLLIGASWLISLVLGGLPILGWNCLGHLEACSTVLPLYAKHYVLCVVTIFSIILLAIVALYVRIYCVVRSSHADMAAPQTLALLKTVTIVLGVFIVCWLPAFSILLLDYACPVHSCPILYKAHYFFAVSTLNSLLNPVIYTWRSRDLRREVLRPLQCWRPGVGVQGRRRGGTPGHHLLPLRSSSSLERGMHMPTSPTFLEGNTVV

S1P1 [6] = target: T1, S1P1; assay: GTPγS binding assay using S1P receptor/CHO membranes preparation; format: biochemical; parameters: expressed in transfected cells; membrane preparation; settings: [35S]GTPγS, CHO membranes, SPA
Method: (§1) GTPγS Binding Assay Using S1P Receptor/CHO Membranes Preparation
(§2) The assay is based on the SPA technology (Amersham) and run in a 96 well format. Membranes are prepared from CHO cells stably expressing the S1P receptor of interest. Aliquots are stored at −80° C. Membranes (5-10 μg/well) resuspended in assay buffer (20 mM HEPES, pH7.4, 100 mM NaCl, 10 mM MgCl2 and 0.1% fat free BSA) containing 25 μg/mL Saponin and 10 μM GDP are mixed WGA-coated SPA beads (final conc. 1 mg/well). Ligand and [^35S]GTPγS (1250 Ci/mmol, final concentration 0.2 nM) are added and the plate sealed. After incubation at room temperature for 120 minutes under constant shaking the plates are centrifuged for 10 minutes at 1000×g to pellet the SPA beads. Then the plates are measured in a TopCount NXT instrument (Packard) and the data analyzed using GraphPad PRISM software.
Target sequence in this assay (P21453 whole entry): as the sequence (P21453 whole entry, species assumed) above

S1P3 [7] = target: T4, S1P3; assay: as above; format: biochemical; parameters: expressed in transfected cells; membrane preparation; settings: [35S]GTPγS, CHO membranes, SPA
Method: as §1, §2
Target sequence in this assay (Q99500 whole entry): as the sequence (Q99500 whole entry, species assumed) above

S1P4 [8] = target: T2, S1P4; assay: as above; format: biochemical; parameters: expressed in transfected cells; membrane preparation; settings: [35S]GTPγS, CHO membranes, SPA
Method: as §1, §2

S1P5 [9] = target: T3, S1P5; assay: as above; format: biochemical; parameters: expressed in transfected cells; membrane preparation; settings: [35S]GTPγS, CHO membranes, SPA
Method: as §1, §2
Target sequence in this assay (Q9H228 whole entry): as the sequence (Q9H228 whole entry, species assumed) above

Row | Structure (SMILES) | EC50 (S1P1 [6]) [nM] | EC50 (S1P3 [7]) [nM] | EC50 (S1P4 [8]) [nM] | EC50 (S1P5 [9]) [nM] | Percent of Lymphocyte Depletion ([1]; 2 hours post treatment) [%] | Percent of Lymphocyte Depletion ([1]; 10 hours post treatment) [%] | Percent of Lymphocyte Depletion ([1]; 24 hours post treatment) [%] | also measured
1 | CCCCCCCCc1ccc(CCC(N)(CO)CO)cc1 [FTY720, 2-amino-2-[2-(4-octylphenyl)ethyl]propane-1,3-diol] |  |  |  |  | 71 | 86 | 86 | affinity to S1P1 (S1P1 [2]): 0.3 nM; affinity to S1P4 (S1P4 [3]): 0.6 nM; affinity to S1P5 (S1P5 [4]): 0.3 nM; affinity to S1P3 (S1P3 [5]): 3.1 nM; binding to S1P2 (S1P2): not
2 | CCCCCCCCc1ccc(CCC(N)(CO)CO)c(I)c1 [Example H, 2-Amino-2-[2-(2-iodo-4-octylphenyl)ethyl]-1,3-propandiol] |  |  |  |  | 67 | 89 | 89 | 
3 | CCCCCCCCc1ccc(CC[C@](N)(CO)COP(=O)(O)O)c(I)c1 [Example K, Phosphoric acid mono-{(S)-2-amino-2-hydroxymethyl-4-[2-(2-iodo-4-octylphenyl)butyl]}ester] | 0.24 | 46 | 7.1 | 1.5 |  |  |  | 
4 | C=C(I)CCCCOc1ccc(CCC(N)(CO)CO)cc1 [Example E, 2-Amino-2-{2-[4-(5-iodo-hex-5-enyloxy)-phenyl]-ethyl}-propane-1,3-diol HCl salt] |  |  |  |  | 64 | 82 | 80 | 
5 | CCCCCCCCc1ccc(CCC(N)(CO)CO)cc1I [Example G, 2-Amino-2-[2-(3-iodo-4-octylphenyl)ethyl]-1,3-propandiol] |  |  |  |  | 51 | 88 | 87 | 

Second part, led by results:

Row | EC50 (S1P1 [6]) [nM] | EC50 (S1P3 [7]) [nM] | EC50 (S1P4 [8]) [nM] | EC50 (S1P5 [9]) [nM] | Structure (SMILES) | Percent of Lymphocyte Depletion ([1]; 2 hours post treatment) [%] | Percent of Lymphocyte Depletion ([1]; 10 hours post treatment) [%] | Percent of Lymphocyte Depletion ([1]; 24 hours post treatment) [%] | also measured
6 | 1.6 | 8.6 | 2.9 | 1.4 | C=C(I)CCCCOc1ccc(CCC(N)(CO)COP(=O)(O)O)cc1 (racemic) [Example F, (R/S)-Phosphoric acid mono-{2-amino-2-hydroxymethyl-4-[4-(5-iodo-hex-5-enyloxy)-phenyl]-butyl}ester] |  |  |  | 
7 | 0.69 | 1.2 | 0.84 | 0.62 | NC(CO)(CCc1ccc(OCCCC/C=C/I)cc1)COP(=O)(O)O (racemic) [Example B, (R/S)-phosphoric acid mono-{2-amino-2-hydroxymethyl-4-[4-((E)-6-iodo-hex-5-enyloxy)-phenyl]-butyl}ester] |  |  |  | 
8 | 0.17 | 84 | 4.9 | 2 | CCCCCCCCc1ccc(CC[C@](N)(CO)COP(=O)(O)O)cc1I [Example J] |  |  |  | 
9 | 0.3 |  |  | 0.7 | CCCCCCCOc1ccc(CC[C@](N)(CO)COP(=O)(O)O)cc1I [Example L, Phosphoric acid mono-{(S)-2-amino-2-hydroxymethyl-4-[2-(3-iodo-4-(heptyloxy)phenyl)butyl]}ester] |  |  |  | 
10 | 1.3 | 3 | 1.9 | 1.1 | NC(CO)(CCc1ccc(OCCCC/C=C\I)cc1)COP(=O)(O)O (racemic) [Example D, (R/S)-phosphoric acid mono-{2-amino-2-hydroxymethyl-4-[4-((z)-6-iodo-hex-5-enyloxy)-phenyl]-butyl}ester] |  |  |  | 
